{
  "source": "patent US10960084B2",
  "about": "“Modulation of fluid intake” (California Institute of Technology, priority 2018, dated 2021)",
  "key": {"SFO^nNOS neurons": {"tested_on": "SFO^nNOS neurons", "assay": "Salt/Mannitol loading with fiber photometry of SFO^nNOS/MnPO^nNOS neurons and drinking", "type": "in vivo, mice", "details": "fiber photometry; for activity of SFO^nNOS neurons after intraperitoneal injection: 2 M solution i.p.", "method": "Salt/Mannitol Loading Experiments: 150 μL/300 μL of 2 M NaCl or 300 μL of 2 M Mannitol was injected intraperitoneally at the end of the acclimatization period. For FIGS. 1P-T and FIGS. 7P-S, CNO or vehicle (water) was injected 10 min prior to NaCl/Mannitol injection. We measured bulk fluorescence signals using fiber photometry as previously described^[26]. Briefly, 490 nm and 405 nm LEDs ([…] and […]) were collimated and delivered to the brain. The light intensity was kept less than 100 μW during all recordings. The fluorescence signal was then focused onto a femtowatt photoreceiver (Newport, Model 2151). The modulation and demodulation were done with an RP2.1 real time processor (Tucker-Davis Technologies) running custom software. The licks from the lickometer were simultaneously recorded as real-time TTL signals to the RP2.1. Fluorescence changes were analyzed using custom MATLAB (MathWorks) code as described previously^[26]. Data were extracted and subjected to a low pass filter at 1.8 Hz. A linear function was used to scale up the 405 nm channel signal to the 490 nm channel signal to get the fitted 405 nm signal. The resultant ΔF/F was calculated as (raw 490 nm signal-fitted 405 nm signal)/(fitted 405 nm signal). For brief access tests, the Area Under Curve (ΣΔFduring) was quantified by integrating the fluorescence signals during the bout. For all bouts, the mean fluorescence for 30 s prior to the first lick was calculated and subtracted from the entire session. ΔF changes (ΔFpost-ΔFpre) were calculated by subtracting the mean fluorescence signal during the 2-s period before the first lick from the mean signal during the 2-s at 1 min after the bout. For displaying traces, the fluorescence data was time-binned by a factor of 2.5 times the sampling frequency and down-sampled to 1 Hz. For long-term tests, the Area Under Curve was calculated for 2.5 min after the start of the bout. […] For […]), the first bout at the start of the session and the last bout within 10 min of access were used. The AUC for the PSTHs were calculated during the first or the last 15 seconds."}, "MnPO^GLP1r neurons": {"tested_on": "MnPO^GLP1r neurons", "assay": "Whole-cell recording from MnPO^GLP1r neurons with Exendin-4", "type": "cell-based, mice", "details": "brain slice preparation", "text": "Procedures for preparation of acute brain slices and recordings with optogenetic stimulations were similar to those described previously^[10],[36]. After decapitation, the brain was removed and immersed in ice-cold solution. Coronal slices ([…]) were cut using a vibratome (VT-1200s, Leica) and moved into HEPES-holding solution (NaCl 92, KCl 2.5, NaH2PO4 1.2, NaHCO3 30, HEPES 20, glucose 25, Na-ascorbate 5, Thiourea 2, Na14 pyruvate 3, MgSO4 2, CaCl2 2, pH 7.35). The slices were allowed to recover at 33° C. for 30 min and then held at room temperature ([…]) until use.\nWhile recording, slices were perfused continuously (˜2 mL/min) with artificial cerebrospinal fluid (ACSF-NaCl 124, KCl2.5, NaH2PO4 1.2, NaHCO3 24, glucose 25, MgSO4 1, CaCl2 2) at 25° C. Neurons were visualized and targeted using an upright IR19 DIC microscope (BX51WI, Olympus). […] In order to confirm the PSCs recorded were GABAergic, picrotoxin (150 μM) was applied through the bath in part of the experiments. […] CNO (˜6 μM) was applied by a puff (30 s) from another glass pipette placed ˜50 μm from the recorded cell."}, "MnPO": {"tested_on": "MnPO", "assay": "Intra-cranial injection of Exendin-4 into the MnPO, water intake", "type": "in vivo, mice", "details": "100 ng into the MnPO vs vehicle (ACSF)", "method": "100 ng of Exendin-4 (Sigma Aldrich) dissolved in 1 μL of ACSF was delivered by a custom-made cannula and tubing (PlasticsOne) connected to a Hamilton syringe driven by a pump (NewEra PumpSystems) at 100 nL/min into the MnPO of water deprived animals under head-fixed conditions. Two minutes after infusion, freely-moving animals were given access to water for the next 45 minutes. The cannula position was verified by infusing Exendin-4-FAM (Anaspec) conjugate before euthanasia. ELISA"}},
  "data": [
    {"molecule": "OC[C@@H](O)[C@@H](O)[C@H](O)[C@H](O)CO", "note": "[Mannitol]", "values": [
      {"measurement": "activity of SFO^nNOS neurons after intraperitoneal injection", "setting": "SFO^nNOS neurons", "value": "robustly activated"}
    ]},
    {"molecule": "[Cl-].[Na+]", "note": "[NaCl]", "values": [
      {"measurement": "activity of SFO^nNOS neurons after intraperitoneal injection", "setting": "SFO^nNOS neurons", "value": "robustly activated"},
      {"measurement": "activity of MnPO^nNOS neurons after intraperitoneal injection", "setting": "SFO^nNOS neurons; 2 M, 300 μl i.p., water-satiated animal", "value": "robustly activated"}
    ]},
    {"molecule": "Exendin-4", "values": [
      {"measurement": "firing frequency of MnPO^GLP1r neurons", "setting": "MnPO^GLP1r neurons", "value": "no effect on the firing frequency"},
      {"measurement": "resting membrane potential of MnPO^GLP1r neurons", "setting": "MnPO^GLP1r neurons", "value": "small decrease"},
      {"measurement": "water intake after water deprivation", "setting": "MnPO", "value": "no effect on water intake"}
    ]}
  ]
}
